Measurements from US20120232107A1, “NON-PEPTIDE ANTAGONISTS OF GASTRIN RELEASING PEPTIDE” (The Government of the United States of America as …, priority 2003, published 2012).
Entries after “also recorded” stand apart in the source; their conditions may differ.

How the values were obtained:
[1] = molecular target: T1, GRP (Homo sapiens, UniProt P07492); assay: IP3 analysis for GRP in H-1299 cells; format: cell-based; details: peptide GRP; IP3 or Ca2+ levels induced by GRP in H1299 cells
T1 construct: GRP is a 27 amino acid peptide; purchased Peninsula (S. Carlos, Calif.); host or cells: synthetic peptide
T1 sequence (P07492 24-50 limits assumed): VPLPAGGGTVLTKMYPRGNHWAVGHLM
Description: This cell line was obtained from ATCC and cultured as the other cell lines. The signal transduction pathway for GRP includes elevation of intracellular levels of IP3 and Ca^2+ and these were investigated as previously shown (Ryan et al. (1998) J. Biol. Chem., 273, 13613-13624). Briefly, to quantify IP3, contents cells were subcultured into 24-well plates (5×10^4 cells/well). After a 24 h incubation period at 37° C., the cells were incubated with 3 μCi/ml myo-[^3H]inositol in growth medium supplemented with 2% FBS for an additional 24 h. Incubation volumes were 500 μl of assay buffer/well containing 135 mM sodium chloride, 20 mM HEPES (pH 7.4), 2 mM calcium chloride, 1.2 mM magnesium sulfate, 1 mM EGTA, 20 mM lithium chloride, 11.1 mM glucose, and 0.05% BSA (v/v) with or without any of the molecules studied at 37° C. for 30 min. Experiments were terminated with 1 ml of ice-cold hydrochloric acid/methanol (0.1%, v/v). [^3H]IP3 was eluted off Dowex AG-1-X8 anion exchange columns with 2 ml of 1 mM ammonium formate and 100 mM formic acid. Each of the eluates was collected and mixed with 10 ml of scintillation mixture (BioSafe, Research Products International Corp, Mount Prospect, Ill.), and the radioactivity was measured in a LS 3801 β counter (Beckman, Somerset, N.J.).

[2] = system: cell line A345; assay: Clonogenic assay in soft agar; format: cell-based; details: A345, 3 weeks
Description: B. Cells from the cell line […] were grown in substrate-independent conditions (clonogenic assay) as previously published (Iwai et al., supra).

[3] = system: lung cancer cell line H1299; assay: Proliferation assay (growth inhibition MTT); format: cell-based; details: H1299, serum-free medium, 5 days
Description: A. Tumor cells (from a lung cancer cell line, H1299) were seeded in 96-well plates at a density of 2.0×10^5 cells per well in serum-free medium containing different concentrations of the test agent, the small molecule inhibitor compound XV′ (77427). After 5 days in culture, the number of viable cells per well was estimated by the growth inhibition MTT assay (as reported in Iwai et al. (1999) Lung Cancer 23, 209-22).

[4] = system: GRP-induced angiogenesis; assay: Directed in vivo angiogenesis assay (DIVAA); design: species or system mice; details: 1 nM GRP in angioreactors, nude mice, 11 days
Description: Analysis and quantitation of angiogenesis was done using DIVAA as previously described (Martinez et al. (2002) J Natl Cancer Inst 94, 1226-37). Briefly, 10 mm long surgical-grade silicone tubes with only one end open (angioreactors) were filled with 20 μl of matrigel alone or mixed with GRP and the small molecules at the indicated concentrations. After the matrigel solidified, the angioreactors were implanted into the dorsal flanks of athymic nude mice (NCI colony). After 11 days, the mice were injected iv with 25 mg/ml FITC-dextran (100 μl/mouse, Sigma) 20 min before removing angioreactors. Quantitation of neovascularization in the angioreactors was determined as the amount of fluorescence trapped in the implants and was measured in a HP Spectrophotometer (Perkin Elmer).

[5] = system: H1299 xenograft; assay: In vivo tumor growth (xenograft experiment); design: species or system mice
Description: Thirty female athymic nude mice from the NIH colony in Frederick (MD) were injected subcutaneously with 1.0×10^7 H1299 cells/mouse. Two weeks later, all the mice had developed palpable tumors under the skin and at this time they were randomly divided in three groups. Three times a week, each individual tumor was measured (length, height, thickness) and every mouse received an intratumoral injection, according to their group. Group 1 (control) received 100 μl PBS (negative control); group 2 received 100 μl 0.5 μM compound XV′ (77427) in PBS; and group 3 received 100 μl 5 μM compound XV′ (77427) in PBS. When the tumor burden became unbearable (larger than 2000 mm^3), the mice were sacrificed.

[6] = system: Bovine retinal microvascular endothelial cells; assay: Cord formation assay in Matrigel; format: cell-based
Description: Formation of tube-like structures was performed as described in Kubota et al. (1988) J. Cell Biol. 107, 1589-1598; Nam et al. (2003) Phytother. Res. 17, 107-111; and Macpherson et al. (2003) Mol Cancer Ther 2, 845-54. Briefly, a thin layer of Matrigel (Collaborative Biomedical Products, Bedford, Mass.) was allowed to polymerize at the bottom of 24-well plates. […] After an overnight incubation at 37° C., the tubular structures were photographed (3 pictures per well at 10×) and the number of knots per photographic field were counted as a measure of lattice complexity.

Question: `Nc1nc(Cl)cc(NCCO)n1` [compound 77427] was tested. Which “Action on second messengers” value [1] did it give?
Answer: Its value is “Antagonists”.

Question: And the “number of colonies in soft agar” value [2]?
Answer: Its value is “reduces the number of colonies”.

Question: And the “growth inhibitory action on lung cancer cells (MTT)” value [3]?
Answer: Its value is “modest dose-dependent growth inhibitory action”.

Question: And the “inhibition of GRP-induced angiogenesis” value [4]?
Answer: The value was “dose-dependent inhibition”.

Question: And the “inhibition of GRP-induced angiogenesis” value ([4]; listed as XV′)?
Answer: The value was “inhibited”.

Question: What about the tumor size ([5]; after a single intratumoral injection) of the same compound?
Answer: The tumor size was “significantly reduced”.

Question: And the tumor size ([5]; after the second intratumoral injection)?
Answer: Its tumor size is “all but disappeared”.

Question: And the “number of knots per photographic field” value ([6]; 5 nM GRP and 0.5 μM compound added together)?
Answer: Its value is 12±4.

Question: And the “complexity of the tubular lattice” value ([6]; 5 nM GRP plus 0.5 μM compound)?
Answer: The value was “marked decrease; also recorded: reduces network complexity; also recorded: greatly reduced”.

Question: What about the “Biological activity (cord formation)” value ([6]; GRP-induced cord formation) of the same compound?
Answer: The value was “Inhibits cord”.
